Source: patent publication EP0562731A1, “Substituted pyridinesulfonamide compounds or their salts, process for preparing the same, and herbicides containing the same” (ISHIHARA SANGYO KAISHA, Ltd., priority 1992, dated 1993)

How the values were obtained:
Assay in all cases: Test Example 1: foliar application pot test, visual growth control rating
Format in all cases: in vivo
Parameters in all cases: key: 1: the same as in an untreated plot; 10: perfect growth control
Details in all cases: wettable powder, observed 20 to 31 days after application
[1] = system: barnyard grass (Echinochloa crus-galli)
Source text: (§1) 1/1,500 are [are (a) = 100 m²] pots were filled with upland farming soil, which in the pots was then sown with a variety of plants. The plants grown will be enumerated below.
(§2) When each plant reached a given growth stage (a 1.2- to 3.0-leaf stage for rice, primary leaf to a 0.7-leaf stage for soybean, 2.1- to 3.6-leaf stage for corn, cotyledon to 0.7-leaf stage for cotton, 2.0- to 3.0-leaf stage for wheat, 0.3- to 3.4-leaf stage for cocklebur, 0.3- to 1.6-leaf stage for morning glory, 0.1- to 1.3-leaf stage for prickly sida, 0.1- to 1.3-leaf stage for slender amaranth, 1.5- to 3.2-leaf stage for barnyard glass, and 1.2- to 3.0-leaf stage for large crabgrass), a predetermined amount of the herbicide of the present invention in the form of a wettable powder, weighed out, diluted with 5 ℓ/a of water and admixed with 0.2 or 0.1 vol%, based on the resulting composition, of an agricultural spreader, was foliarly applied to the plant with a small spray gun. The progress of growth of the plant was visually observed 20 to 31 days after the foliar application to evaluate the degree of growth control according to 10 ratings (1: the same as in an untreated plot - 10: perfect growth control).

corn (Zea mays) = system: corn (Zea mays)
Source text: as §1, §2

[2] = system: slender amaranth (Amaranthus viridis)
Source text: as §1, §2

wheat (Triticum) = system: wheat (Triticum)
Source text: as §1, §2

[3] = system: large crabgrass (Digitaria adscendens)
Source text: as §1, §2

rice (Oryza sativa) = system: rice (Oryza sativa)
Source text: as §1, §2

[4] = system: cocklebur (Xanthium strumarium)
Source text: as §1, §2

[5] = system: morning glory (Ipomoea purpurea)
Source text: as §1, §2

[6] = system: prickly sida (Sida spinosa)
Source text: as §1, §2

SMILES	degree of growth control, EC ([1]; 0.31 g/a active ingredient)	degree of growth control, EC ([1]; 1.25 g/a active ingredient)	degree of growth control, ZE (corn (Zea mays); 0.31 g/a active ingredient)	degree of growth control, ZE (corn (Zea mays); 1.25 g/a active ingredient)	degree of growth control, AM ([2]; 0.31 g/a active ingredient)	degree of growth control, AM ([2]; 1.25 g/a active ingredient)	degree of growth control, TR (wheat (Triticum); 0.31 g/a active ingredient)	degree of growth control, TR (wheat (Triticum); 1.25 g/a active ingredient)	degree of growth control, DI ([3]; 0.31 g/a active ingredient)	degree of growth control, DI ([3]; 1.25 g/a active ingredient)	degree of growth control, OR (rice (Oryza sativa); 0.31 g/a active ingredient)	degree of growth control, OR (rice (Oryza sativa); 1.25 g/a active ingredient)	degree of growth control, XA ([4]; 0.31 g/a active ingredient)	degree of growth control, XA ([4]; 1.25 g/a active ingredient)	degree of growth control, IP ([5]; 0.31 g/a active ingredient)	degree of growth control, IP ([5]; 1.25 g/a active ingredient)	degree of growth control, SI ([6]; 0.31 g/a active ingredient)	degree of growth control, SI ([6]; 1.25 g/a active ingredient)
COc1nc(C)nc(NC(=O)NS(=O)(=O)c2cccc(N(OC)S(=O)(=O)C(C)C)n2)n1 [compound 41]	10	10	10	10	–	–	–	–	–	–	–	–	–	–	–	–	–	–
COc1nc(C)nc(NC(=O)NS(=O)(=O)c2cccc(N(C)S(=O)(=O)C(C)Cl)n2)n1 (racemic) [compound 85]	10	10	10	10	–	–	–	–	–	–	–	–	–	–	–	–	–	–
CCN(c1cccc(S(=O)(=O)NC(=O)Nc2nc(C)nc(OC)n2)n1)S(=O)(=O)C(C)C [Compound No. 1, 6-[(N-ethyl-N-isopropylsulfonyl)amino]-N-[[(4-methoxy-6-methyltriazin-2-yl)amino]carbonyl]-2-pyridinesulfonamide]	–	–	–	–	10	10	8	8	8	8	–	–	–	–	–	–	–	–
COc1nc(C)nc(NC(=O)NS(=O)(=O)c2cccc(N(C(C)C)S(=O)(=O)C(C)Cl)n2)n1 (racemic) [compound 93]	–	–	–	–	9	9	–	–	–	–	9	9	10	10	9	9	–	–
CCC(C)N(c1cccc(S(=O)(=O)NC(=O)Nc2nc(C)nc(OC)n2)n1)S(=O)(=O)CC(C)C (racemic) [compound 80]	–	–	–	–	–	–	–	–	2	2	–	–	6	6	5	5	3	3
CCN(c1cccc(S(=O)(=O)NC(=O)Nc2nc(C)nc(OC)n2)n1)S(=O)(=O)C(C)Br (racemic) [compound 78]	10	10	10	10	–	–	–	–	–	–	–	–	10	10	10	10	–	–
COc1nc(C)nc(NC(=O)NS(=O)(=O)c2cccc(N(C)S(=O)(=O)C(Br)(Br)Br)n2)n1 [compound 89]	–	–	–	–	–	–	–	–	7	7	–	–	10	10	–	–	–	–
CCN(c1cccc(S(=O)(=O)NC(=O)Nc2nc(C)nc(OC)n2)n1)S(=O)(=O)C(C)(C)Cl [compound 87]	–	–	–	–	–	–	–	–	–	–	–	–	10	10	–	–	–	–
CCN(c1cccc(S(=O)(=O)NC(=O)Nc2nc(C)nc(OC)n2)n1)S(=O)(=O)C(Br)(Br)Br [compound 90]	10	10	–	–	–	–	–	–	6	6	–	–	10	10	–	–	6	6
CCN(c1cccc(S(=O)(=O)NC(=O)Nc2nc(C)nc(OC)n2)n1)S(=O)(=O)C(Cl)(Cl)Cl [compound 91]	–	–	–	–	–	–	9	9	–	–	9	9	10	10	9	9	–	–
CCCN(c1cccc(S(=O)(=O)NC(=O)Nc2nc(OC)nc(OC)n2)n1)S(=O)(=O)C(C)C [Compound No. 5]	10	10	–	–	–	–	–	–	–	–	–	–	10	10	–	–	–	–
CCN(c1cccc(S(=O)(=O)NC(=O)Nc2nc(OC)nc(OC)n2)n1)S(=O)(=O)C(Cl)Cl [Compound No. 57, 6-[(N-dichloromethylsulfonyl-N-ethyl)amino]-N-[[(4,6-dimethoxytriazine-2-yl)amino]carbonyl]-2-pyridinesulfonamide]	–	–	–	–	–	–	6	6	9	9	–	–	10	10	10	10	–	–
CCN(c1cccc(S(=O)(=O)NC(=O)Nc2nc(C)nc(OC)n2)n1)S(=O)(=O)C(Cl)Cl [compound 56]	10	10	10	10	–	–	10	10	10	10	9	9	10	10	–	–	–	–
CCCCS(=O)(=O)N(c1cccc(S(=O)(=O)NC(=O)Nc2nc(C)nc(OC)n2)n1)C(C)CC (racemic) [compound 84]	5	5	–	–	–	–	–	–	–	–	–	–	–	–	6	6	–	–
CCCN(c1cccc(S(=O)(=O)NC(=O)Nc2nc(C)nc(OC)n2)n1)S(=O)(=O)C(C)Cl (racemic) [compound 86]	10	10	10	10	–	–	–	–	–	–	–	–	–	–	10	10	–	–
CCN(c1cccc(S(=O)(=O)NC(=O)Nc2nc(OC)nc(OC)n2)n1)S(=O)(=O)C(C)Cl (racemic) [Compound No. 55, 6-[[N-(1-chloroethylsulfonyl)-N-ethyl]amino]-N-[[(4,6-dimethoxytriazin-2-yl)amino]carbonyl]-2-pyridinesulfonamide]	10	10	10	10	6	6	–	–	–	–	9	9	10	10	–	–	6	6
CCN(c1cccc(S(=O)(=O)NC(=O)Nc2nc(OC)nc(OC)n2)n1)S(=O)(=O)C(C)C [Compound No. 2, 6-[(N-ethyl-N-isopropylsulfonyl)amino]-N-[[(4,6-dimethoxytriazin-2-yl)amino]carbonyl]-2-pyridinesulfonamide]	–	–	–	–	10	10	–	–	–	–	–	–	10	10	–	–	–	–
